Biological target: T1, HMG-CoA reductase (Rattus norvegicus, UniProt P51639)
T1 sequence (P51639 1-887): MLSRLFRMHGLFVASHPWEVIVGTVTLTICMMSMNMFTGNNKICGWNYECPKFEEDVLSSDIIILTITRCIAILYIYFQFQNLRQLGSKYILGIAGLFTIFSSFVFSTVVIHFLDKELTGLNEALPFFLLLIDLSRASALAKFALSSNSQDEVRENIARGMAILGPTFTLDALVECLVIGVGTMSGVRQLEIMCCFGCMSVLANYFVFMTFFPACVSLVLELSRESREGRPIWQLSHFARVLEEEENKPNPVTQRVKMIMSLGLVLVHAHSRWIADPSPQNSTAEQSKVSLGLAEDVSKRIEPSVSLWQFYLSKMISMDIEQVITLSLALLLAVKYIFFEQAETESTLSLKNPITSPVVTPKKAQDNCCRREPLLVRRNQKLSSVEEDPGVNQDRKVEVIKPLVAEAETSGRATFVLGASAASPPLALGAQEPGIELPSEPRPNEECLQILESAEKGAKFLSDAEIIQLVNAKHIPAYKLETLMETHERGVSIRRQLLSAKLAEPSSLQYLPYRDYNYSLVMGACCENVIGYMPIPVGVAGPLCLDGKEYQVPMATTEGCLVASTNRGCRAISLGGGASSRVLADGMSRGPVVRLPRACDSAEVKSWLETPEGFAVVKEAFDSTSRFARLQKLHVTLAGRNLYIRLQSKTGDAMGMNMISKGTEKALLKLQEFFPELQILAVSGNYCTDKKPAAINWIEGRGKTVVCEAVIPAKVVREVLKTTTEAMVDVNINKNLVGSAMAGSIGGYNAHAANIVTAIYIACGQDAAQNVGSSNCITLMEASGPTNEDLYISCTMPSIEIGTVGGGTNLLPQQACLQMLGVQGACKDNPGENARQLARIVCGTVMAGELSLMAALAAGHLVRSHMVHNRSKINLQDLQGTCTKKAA
Assay: intrinsic HMG-CoA reductase inhibition, in vitro protocol of J. Med. Chem., 28, p. 347-358 (1985)
Format: biochemical
Settings: IC50 of test compound compared with that of compactin determined simultaneously; compactin = 100
Procedure: The intrinsic HMG-CoA reductase inhibition activity of the claimed compounds is measured in the in vitro protocol published in J. Med. Chem., 28, p. 347-358 (1985).
For estimation of relative inhibitory potencies, compactin (i.e., mevastatin) was assigned a value of 100 and the IC50 value of the test compound was compared with that of compactin determined simultaneously in the published in vitro protocol.

Compound | Relative Potency
CCC(C)(C)C(=O)O[C@H]1CC2(CC2)C[C@@H]2CC[C@H](C)[C@H](CC[C@@H]3C[C@@H](O)CC(=O)O3)[C@H]21 [1,1-dimethylpropyl --CH2 CH2 --] | 170
CCC(C)(C)C(=O)O[C@H]1CC(C)(C)C[C@@H]2CC[C@H](C)[C@H](CC[C@@H]3C[C@@H](O)CC(=O)O3)[C@H]21 [1,1-dimethylpropyl CH3 CH3, 6(R)-[2-(8(S)-(2,2-Dimethylbutyryloxy)-2(S),6,6-trimethyl-1,2,3,4,4a(S),5,6,7,8,8a(S)-decahydronaphthyl-1(S)]ethyl]-4(R) hydroxy-3,4,5,6-tetrahydro-2H pyran-2-one] | 111
